Holding throughout (type): cell-based
Test [1] has as its system NCI—N87 (gastric cancer cells). The experiment in a line: Combination growth inhibition (isobologram), NCI-N87. To be noted: selumetinib (MEK inhibitor) combined with a SHP2 inhibitor of the instant disclosure, FIG. 2A.
The subject of test [2] is HuH-7 (hepatocellular carcinoma cells). The experiment in a line: Combination growth inhibition (isobologram), HuH-7. The following applies: AZD-4547 (FGFR inhibitor) combined with a SHP2 inhibitor of the instant disclosure; HuH-7 cells; FIG. 3.
For test [3], the system named is NCI—H23 (KRAS G12C mutant non-small cell lung cancer cells). The test can be described thus: Combination growth inhibition (isobologram), NCI-H23. To be noted: ARS-1620 (KRAS G12C inhibitor) combined with a SHP2 inhibitor of the instant disclosure, FIG. 2B.
Test [4] concerns NCI—H3122 (non-small cell lung cancer cells). The experiment in a line: Combination growth inhibition (isobologram), NCI-H3122. The following applies: crizotinib (ALK inhibitor) combined with a SHP2 inhibitor of the instant disclosure, FIG. 1B.

Take `Cn1cnc2c(F)c(Nc3ccc(Br)cc3Cl)c(C(=O)NOCCO)cc21` [selumetinib]: the “growth inhibition (isobologram)” value in test [1] is “synergistic growth inhibition”.
Regarding `COc1cc(CCc2cc(NC(=O)c3ccc(N4CC(C)NC(C)C4)cc3)n[nH]2)cc(OC)c1` (stereo not shown) [AZD-4547], the “growth inhibition (isobologram)” value in test [2] is “synergistic growth inhibition”.
Take `C=CC(=O)N1CCN(c2ncnc3c(F)c(-c4c(O)cccc4F)c(Cl)cc23)CC1` [ARS-1620]: in test [3], the “growth inhibition (isobologram)” value was “synergistic growth inhibition”.
Take `C[C@@H](Oc1cc(-c2cnn(C3CCNCC3)c2)cnc1N)c1c(Cl)ccc(F)c1Cl` [crizotinib]: the “growth inhibition (isobologram)” value in test [4] is “synergistic growth inhibition”.

These data come from patent publication US10934302B1, “SHP2 phosphatase inhibitors and methods of use thereof” (Relay Therapeutics, Inc., priority 2018, dated 2021).
